The data set can be described thus: Pharmacokinetic study of minocycline in CSF of rats, quantified by the microbiological method with 4PL curve fit. It is filed as in vivo. The following applies: normal Sprague-Dawley rats, intra CSF injection of 1 mg/mL MC solution. As for the experimental part:
A curve representing the percentage of bacterial growth inhibition versus antibiotic concentration applied to each well was also obtained.. Subsequently, using a curve fit analysis called “Four Parameter Curve Logistic (4PL)”, the values of antibiotic concentrations in the biological sample were obtained.
Cerebrospinal fluid (CSF) collection: It was collected by transcutaneous cisternal magna puncture. Minocycline injections were performed by the same route.
Curve fitting: Four Parameter Logistic Curve (4PL) analysis was applied to minocycline antibiotic obtained from FIG. 1:
Minocycline (MC), an antibiotic belonging to the family of tetracyclines, was used to carry out pharmacokinetic studies of CSF in Sprague-Dawley rats. Briefly, normal rats were injected via intra CSF an MC solution of 1 mg/mL, for subsequent sampling of CSF at time zero, 1, 10 and 18 hours. […] At 18 hours it is still possible to detect a concentration of 69 ng/mL (FIG. 4).

Experimental findings from patent US20170037446A1, “METHOD FOR THE MICROBIOLOGICAL DETERMINATION OF TRACES OF A[…] LOW VOLUME BIOLOGICAL SAMPLES” (UNIVERSIDAD DE SANTIAGO DE CHILE, priority 2013, published 2017) are described below.

Turning to `CN(C)c1ccc(O)c2c1C[C@H]1C[C@H]3[C@H](N(C)C)C(O)=C(C(N)=O)C(=O)[C@@]3(O)C(O)=C1C2=O` [Minocycline], the “detection of MC in CSF” value (CSF sampled at time zero, 1, 10 and 18 hours) is reported as “detected at all times”. Also, the concentration at 18 h (rat, cerebrospinal fluid (CSF), other: intra CSF (transcutaneous cisternal magna puncture), CSF sampled at 18 hours (FIG. 4)) was 69 ng/mL.
